Test results reported in US20210318274A1, “METHODS FOR EVALUATING LIVER FUNCTION” (HepQuant, LLC, priority 2020, published 2021).
Where two headings read alike, the source gives them in different places. One block for each molecule: values may come before it.

Columns and labels:
[1] = cited from earlier work
[2] = Antipyrine clearance by Child-Pugh and DSI; format: in vivo, human
Text: Antipyrine is an analgesic and antipyretic. […] Antipyrine may be used in testing the effects of other drugs or diseases on drug-metabolizing enzymes in the liver, such as various cytochrome p450 (CYP) enzymes, for example, as shown in Table 22.

[3] = individuals with chronic liver disease and cirrhosis; cited from earlier work
[4] = design: species or system human; conditions: in vivo
Method: In some embodiments, the distinguishable compound is galactose. Galactose elimination capacity (GEC) has been used as an index of residual hepatic function. Galactose in the GEC test typically is administered intravenously at a dose of […] and venous samples taken every 5 min between 20 and 60 minutes. The clearance of galactose is decreased in individuals with chronic liver disease and cirrhosis. The fact that this carbohydrate has a high extraction ratio, however, makes the metabolism of galactose dependent on liver blood flow and hepatic functional mass. […] The carbohydrate galactose is metabolized almost exclusively in the liver, and the elimination rate at blood concentrations high enough to yield near-saturated enzymatic conversion, the GEC is used as a quantitative measure of the metabolic capacity of the liver. One study has shown that among patients with a newly-diagnosed cirrhosis and a decreased GEC, the GEC was a strong predictor of mortality. (Jepsen et al, 2009, The galactose elimination capacity and mortality in 781 Danish patients with newly-diagnosed liver cirrhosis: a cohort study. BMC Gastroenterol. 2009, 9:50).

[5] = Lidocaine MEGX 15 min concentration by Child-Pugh and DSI; format: in vivo, human; conditions: by DSI score group (5-15, 15-25, 25-35, 35-45)
Method: Lidocaine elimination and MEGX (monoethylglycinexylidide) formation after oral lidocaine administration may be used as a quantitative assessment of liver function. […] MEGX 15 minute concentrations.

[6] = in vivo
Text: The present inventors analyzed the relationship of DSI to pharmacokinetic parameters of various classes of drugs.
Methionine is an essential amino acid in humans, and is the substrate for other amino acids such as cysteine or taurine. Methionine also may be used to prevent liver toxicity in acetaminophen (Tylenol) poisoning, to increase acidity of urine, treat liver disorders, or improve wound healing. […] The methionine breath test may involve orally administered ^13C-methionine to detect hepatic mitochondrial dysfunction by evaluating level of ^13CO2 exhalation. ^13C methionine breath test may be used to monitor hepatic mitochondrial oxidation and drug-related mitochondrial toxicity in vivo, for example, to detect antiretroviral drug-related mitochondrial toxicity.

[7] = Obeticholic acid plasma exposure versus DSI, clinical trial in NASH; format: in vivo, human; conditions: NASH patients, fibrosis F1 to compensated F4
Text: Obeticholic acid (OCA) is a Farnesoid X Receptor (FXR) agonist, bile acid analog of chenodeoxycholic acid that is FDA approved for treatment of primary biliary cholangitis, and is being studied for use in treating other hepatic diseases and conditions. […] The circles are observed data; red lines are linear regression fit. OCA=Obeticholic acid. […] DSI correlates with OCA PK both at baseline (day 1) and at day 85.

Compound: Cc1cc(=O)n(-c2ccccc2)n1C [Antipyrine]
First pass hepatic extraction (qualitative) ([1]; in vivo): low first pass hepatic metabolism | Average antipyrine clearance ([2]; Child-Pugh class B versus CP A5 and CP A6 patients): decreased average antipyrine clearance | Average antipyrine clearance ([2]; by DSI score group (5-15, 15-25, 25-35, 35-45)): reduced average antipyrine clearance | Average antipyrine clearance ([2]; by DSI score group (5-15, 15-25, 25-35, 35-45), listed as antipyrine): lowest PK average values

Compound: O=C[C@H](O)[C@@H](O)[C@@H](O)[C@H](O)CO [Galactose]
First pass hepatic extraction (qualitative) ([1]; substrate characterisation): relatively high first pass hepatic extraction | Clearance of galactose [3]: decreased | Average galactose elimination capacity [4]: decreased average galactose elimination capacity

Compound: CCN(CC)CC(=O)Nc1c(C)cccc1C [Lidocaine]
First pass hepatic extraction (qualitative) ([1]; substrate characterisation): relatively high first pass hepatic extraction | Average MEGX 15 min concentration following lidocaine [5]: lowest PK average values

Average ^13CO2 exhalation score (methionine breath test) ([6]; human): reduced average ^13CO2 exhalation score | Average ^13CO2 exhalation score (methionine breath test) [6]: lowest PK average values
Compound: CSCC[C@H](N)C(=O)O [Methionine]
First pass hepatic extraction (qualitative) ([1]; substrate characterisation): relatively low first pass hepatic extraction | Average methionine breath test value [6]: decreased average methionine breath test values

Plasma exposure in relation to DSI [7]: related to DSI measurement
Compound: CC[C@H]1[C@@H](O)[C@@H]2[C@H](CC[C@]3(C)[C@@H]([C@H](C)CCC(=O)O)CC[C@@H]23)[C@@]2(C)CC[C@@H](O)C[C@@H]12 [Obeticholic acid, 6alpha-ethyl-chenodeoxycholic acid]
